Experiment [1] has as its system advanced solid tumours. As to the kind of experiment: Tumour response by RECIST 1.1. It counts as in vivo, human. As for the experimental part:
Tumour assessments (computed tomography, magnetic resonance imaging, photographs and bone scans, as suitable for tumour type), based on Response Evaluation Criteria in Solid Tumors version 1.1, were performed at screening and subsequently every 8 weeks until disease progression.

Experiment [2] deals with SNU-182. As to the kind of experiment: 8-day growth inhibition. It counts as cell-based. The following applies: HCC, SNU-182, 8-day assay.
For experiment [3], the system named is ECC-1. As to the kind of experiment: 8-day growth inhibition. It counts as cell-based. The following applies: Endometrial, ECC-1, 8-day assay.
The test system of experiment [4] is HEC-6. As to the kind of experiment: 8-day growth inhibition. It counts as cell-based. The conditions noted are these: Endometrial, HEC-6, 8-day assay.

Entries after “also recorded” stand apart in the source; their conditions may differ.

On to `O=c1[nH]nc2c3c(cccc13)N=C(CN1Cc3ccccc3C1)N2` [E7449], for which the “ORR in patients with germline-mutated BRCA” value in experiment [1] (1/6) was 16.7%. Further, in experiment [1] (2/41, all cohorts), the “Objective response rate (ORR)” value is given as 4.9%. Besides, the “Patients with BRCA mutations with partial response or stable disease” value in experiment [1] (3/6) came out at 50%. In addition, the “Best overall response of stable disease, patients” value in experiment [1] (13 of 41 patients) is 31.7%. The “Median duration of stable disease” value in experiment [1] (13 patients) is recorded as 162 days. Besides, the “Best Overall Response to E7449” value in experiment [1] (BRCA-mutated patient, platinum naïve, breast) is “Progressive Disease”; in experiment [1] (BRCA-mutated patient, platinum naïve, pancreas), “Stable Disease”; in experiment [1] (BRCA-mutated patient, platinum resistant, breast) it was “Progressive Disease”; in experiment [1] (BRCA-mutated patients, platinum sensitive, ovary (one line per patient)), “Stable Disease; also recorded: Partial Response; also recorded: Progressive Disease”. The “Patients with durable (>23 weeks) stable disease” value in experiment [1] (of 13 patients with SD) is reported as 8. The “Patients with a decrease in target lesion size” value in experiment [1] (of the 35 patients evaluated for best overall response) is 13. Moreover, in experiment [1] (ovarian cancer, 1 each in 600-mg and 800-mg cohorts), the “Partial responses, patients” value is recorded as 2. Moreover, the IC50 (as a rule, the midpoint of a concentration-inhibition curve) in experiment [2] came out at 5.4 µM; in experiment [3] it was 0.68 µM; in experiment [4] it was 1.88 µM.
